Converted amounts (≈) assume the structure as drawn. Where two headings read alike, the source gives them in different places.
Columns and labels:
[1] = system: C. albicans; assay: Antifungal susceptibility; type: cell-based, Candida albicans
[2] = system: C. parapsilosis; assay: Antifungal susceptibility; type: cell-based, Candida parapsilosis
[3] = system: Shigella spp.; assay: Disk diffusion, stool isolates Tehran; type: cell-based; conditions: 96 isolates
[4] = system: biofilms of S. aureus (SA204 and SA195) and S. epidermidis (ATCC35983 and ATCC35984); assay: Antibiotic lock, in vitro biofilm on polyurethane film, viable counts; type: cell-based, Staphylococcus species; conditions: any of the time intervals examined
[5] = system: MSSA; assay: Agar dilution MIC; type: cell-based, Staphylococcus aureus; conditions: for MIC50 / MIC90: Staphylococcus aureus, MSSA; for MIC range: n = 200
[6] = system: Pseudomonas aeruginosa (PSA); assay: Vitek 2 susceptibility, urine isolates of children; type: cell-based; conditions: both departments
[7] = system: Acinetobacter; assay: Disk diffusion; type: cell-based; conditions: 37 isolates selected as resistant to beta-lactams
[8] = system: viridans group streptococci (VGS); assay: MIC; type: cell-based
[9] = system: nontyphoidal Salmonella; assay: Agar dilution, isolates from chickens 1998–2004; type: cell-based, Salmonella spp.
[10] = Linezolid in paediatric oncohaematological patients, retrospective; type: in vivo, human
[11] = system: enterococci; assay: Disk diffusion and E-test, faecal isolates of cancer patients; type: cell-based, Enterococcus; conditions: 38 strains
[12] = system: Nocardia spp.; assay: E-test on Mueller Hinton agar, 81 clinical isolates; type: cell-based; conditions: for MIC50 / MIC90: Nocardia
[13] = system: glycopeptide intermediate Staphylococcus species (GISS); assay: VITEK II, screening plate and E test, blood isolates; type: cell-based, coagulase-negative Staphylococci
[14] = system: MRSA; assay: Agar dilution MIC; type: cell-based, Staphylococcus aureus
[15] = system: viridans group streptococci (VgS) and Streptococcus bovis; assay: Broth microdilution and disk diffusion; type: cell-based; conditions: nine species
[16] = system: E. faecalis; assay: E-test susceptibility; type: cell-based, Enterococcus faecalis
[17] = system: E. faecium; assay: E-test susceptibility; type: cell-based, Enterococcus faecium
[18] = system: methicillin susceptible Staphylococcus aureus; assay: NCCLS agar dilution MIC; type: cell-based
[19] = system: methicillin resistant Staphylococcus aureus; assay: NCCLS agar dilution MIC; type: cell-based; conditions: n = 53
[20] = system: S. pneumoniae; type: cell-based, Streptococcus pneumoniae
[21] = system: N.gonorrhoeae; assay: microbe, parasite or virus in culture; type: cell-based; conditions: Neisseria gonorrhoeae
[22] = system: Salmonella enterica; assay: VITEK, NCCLS microdilution and disc diffusion of quinolones; type: cell-based
[23] = system: Pseudomonas aeruginosa; assay: MIC, strains from cystic fibrosis patients; conditions: by MIC
[24] = system: S. pneumoniae; assay: E-test MIC, children with URTI, Brazil; type: cell-based, Streptococcus pneumoniae
[25] = system: S. pneumoniae; assay: PROTEKT Italy, NCCLS microdilution; type: cell-based, Streptococcus pneumoniae
[26] = system: S. -pneumoniae; assay: Sensitivity of CAP pathogens with/without antibiotic pretreatment; type: cell-based, Streptococcus pneumoniae
[27] = system: S. pyogenes; assay: as above; type: cell-based, Streptococcus pyogenes; conditions: Abs. 4
[28] = system: H. influenzae; assay: as above; type: cell-based, Haemophilus influenzae
[29] = system: Other Haemophilus sp.; assay: as above; type: cell-based
[30] = system: E. coli; assay: as above; type: cell-based, Escherichia coli
[31] = system: Kl. pneumoniae; assay: as above; type: cell-based, Klebsiella pneumoniae
[32] = system: Other Enterobacteriacae; assay: as above; type: cell-based, Enterobacteriaceae
[33] = system: P. aeruginosa; assay: as above; type: cell-based, Pseudomonas aeruginosa; conditions: Abs. 3
[34] = system: Other non-fermenting bacteria; assay: as above; type: cell-based
[35] = system: Enterococcus sp; assay: as above; type: cell-based
[36] = system: S. aureus; assay: as above; type: cell-based, Staphylococcus aureus
[37] = system: Staph. coaq (−); assay: as above; type: cell-based, coagulase-negative Staphylococcus
[38] = system: Total pathogens in community acquired pneumonia; assay: as above; type: cell-based
[39] = system: pathogens in community acquired pneumonia of different severity; assay: Sensitivity of CAP pathogens by Fine severity group; type: cell-based
[40] = system: S. pneumoniae; assay: Broth microdilution; type: cell-based, Streptococcus pneumoniae; conditions: 275 isolates

C[C@@H]1[C@H](O)[C@@H](C)/C=C/C=C/CC/C=C/C=C/C=C/C=C/C(O[C@H]2O[C@H](C)[C@@H](O)[C@H](N)[C@@H]2O)CC2O[C@](O)(CC(O)C(O)CCC(O)CC(O)CC(O)CC(=O)O[C@H]1C)CC(O)C2C(=O)O (stereo partly shown) [nystatin]
intermediate susceptibility [1]: 2%
resistance [1]: 2%
resistant [2]: 10%

Cc1nnc(SCC2=C(C(=O)O)N3C(=O)[C@@H](NC(=O)Cn4cnnn4)[C@H]3SC2)s1 [cefazolin]
sensitive [3]: 80%
significant biofilm killing [4]: not achieved
MIC50 [5]: < 0.5 µg/mL
MIC90 [5]: < 1 µg/mL
MIC range [5]: 250 to 1000 µg/mL

CC1(C)S[C@@H]2[C@H](NC(=O)[C@H](C(=O)O)c3ccsc3)C(=O)N2[C@H]1C(=O)O [ticarcillin]
Susceptible isolates [6]: 74-100%
resistant isolates [7]: 86.5%

NCC[C@H](O)C(=O)N[C@@H]1C[C@H](N)[C@@H](O[C@H]2O[C@H](CN)[C@@H](O)[C@H](O)[C@H]2O)[C@H](O)[C@H]1O[C@H]1O[C@H](CO)[C@@H](O)[C@H](N)[C@H]1O [AM, amikacin]
Susceptible isolates [6]: 74-100%
MIC50 [8]: 0.12 µg/mL (≈ 0.205 µM)
MIC90 [8]: 1 µg/mL (≈ 1.71 µM)
resistance ([9]; Belgian collection (caecal samples; Belgium, France, Netherlands)): 46%
resistance ([9]; Germany (carcass meat)): 16%

CC(=O)NC[C@H]1CN(c2ccc(N3CCOCC3)c(F)c2)C(=O)O1 [linezolid]
clinical response ([10]; 10 mg/kg bid iv, combined therapy, 38/50 courses): 76%
courses discontinued due to exacerbation of cytopenia ([10]; 1 course): 2%
eradication of Gram(+) organisms in mixed fungal and bacterial infection ([10]; 4/50 courses): 8%
complete resolution after ineffective vancomycin therapy ([10]; 8/16): 50%
eradication, documented Gram(+) infection ([10]; 13/13): 100%
complete resolution of the symptoms ([10]; 34/50 courses): 68%
MIC50 [8]: 1 µg/mL (≈ 2.96 µM)
MIC90 [8]: 1 µg/mL (≈ 2.96 µM)
susceptibility of all isolates ([8]; NCCLS): All isolates were susceptible
sensitivity of all isolated strains [11]: All the isolated strains were sensitive
MIC50 [12]: 1 µg/mL (≈ 2.96 µM)
MIC90 [12]: 2 µg/mL (≈ 5.93 µM)
MIC range ([12]; read after 48 and 72 h): 0.047 to 3 µg/mL
sensitivity of all GISS strains [13]: all GISS strains demonstrated sensitivity
MIC50 [5]: < 2 µg/mL
MIC90 [5]: < 2 µg/mL
MIC range [5]: 2 µg/mL (≈ 5.93 µM)
MIC50 ([14]; Staphylococcus aureus, MRSA): < 2 µg/mL
MIC90 ([14]; Staphylococcus aureus, MRSA): < 2 µg/mL
MIC range ([14]; n = 50): 2 µg/mL (≈ 5.93 µM)
% S, range between species [15]: 99.1 – 100.0%
Susceptibility ([16]; ICU, SRGA breakpoints, tigecycline tentative ≤2 μg/ml): 98%
Susceptibility ([16]; non-ICU): 99%
Susceptibility ([17]; ICU): 98%
Susceptibility ([17]; non-ICU): 99%
MIC50 ([18]; Staphylococcus aureus): 2 µg/mL (≈ 5.93 µM)
MIC90 ([18]; Staphylococcus aureus): 2 µg/mL (≈ 5.93 µM)
MIC range ([18]; n = 41): 0.5 to 2 µg/mL
MIC range [19]: 1 to 32 µg/mL

CCOc1ccc2ccccc2c1C(=O)N[C@@H]1C(=O)N2[C@@H]1SC(C)(C)[C@@H]2C(=O)O [nafcillin]
significant biofilm killing [4]: not achieved

CC1COc2c(N3CCN(C)CC3)c(F)cc3c(=O)c(C(=O)O)cn1c23 (stereo not shown) [ofloxacin]
sensitive [3]: 100%
resistant [20]: 0%
MIC ([21]; strain 76mu6): 8 µg/mL (≈ 22.1 µM)
MIC ([21]; strain 76mu10): 8 µg/mL (≈ 22.1 µM)
MIC ([21]; strain 92mu6): 4 µg/mL (≈ 11.1 µM)
MIC ([21]; strain 92mu13): 4 µg/mL (≈ 11.1 µM)
MIC ([22]; read-out: NCCLS MIC, 37 NAL-R strains): 0.25 to 1 µg/mL (≈ 0.692 to 2.77 µM)
MIC ([22]; read-out: NCCLS MIC, NAL-S strains): ≤ 0.06 µg/mL
resistance rate ([13]; 73 GISS strains): 84,9%
resistant isolates [7]: 43.2%

colistin methanesulfonate
Susceptible isolates [23]: 98%

Clc1ccc(COC(Cn2ccnc2)c2ccc(Cl)cc2Cl)cc1 (stereo not shown) [econazole]
intermediate susceptibility [1]: 2%
resistant and intermediate susceptibility [2]: 63%

CC1(C)S[C@@H]2[C@H](NC(=O)[C@H](N)c3ccc(O)cc3)C(=O)N2[C@H]1C(=O)O [amoxicillin]
resistant (R) ([24]; 137 isolates): 0.7%
MIC ([24]; Streptococcus pneumoniae, read-out: MIC of the one resistant isolate): 3 µg/mL
MIC50 [12]: 12 µg/mL (≈ 32.8 µM)
MIC90 [12]: 32 µg/mL (≈ 87.6 µM)
susceptible ([25]; year 1: 2002): 93.8%
susceptible ([25]; year 2: 2003): 96.6%
% of sensitive strains ([26]; after antibiotic pretreatment, Abs. 3): 66.7%
% of sensitive strains ([26]; without antibiotic pretreatment, Abs. 13): 92.3%
% of sensitive strains ([27]; after pretreatment): 75.0%
% of sensitive strains ([27]; without pretreatment): 100.0%
% of sensitive strains ([28]; after pretreatment, Abs. 10): 80.0%
% of sensitive strains ([28]; without pretreatment, Abs. 26): 88.5%
% of sensitive strains ([29]; after pretreatment, Abs. 11): 90.9%
% of sensitive strains ([29]; without pretreatment, Abs. 21): 90.5%
% of sensitive strains ([30]; after pretreatment, Abs. 1): 100.0%
% of sensitive strains ([30]; without pretreatment, Abs. 5): 60.0%
% of sensitive strains ([31]; after pretreatment, Abs. 5): 0.0%
% of sensitive strains ([31]; without pretreatment, Abs. 4): 0.0%
% of sensitive strains ([32]; after pretreatment, Abs. 5): 20.0%
% of sensitive strains ([32]; without pretreatment, Abs. 2): 50.0%
% of sensitive strains ([33]; after pretreatment): 0.0%
% of sensitive strains ([33]; without pretreatment): 0.0%
% of sensitive strains ([34]; after pretreatment, Abs. 0): 0.0%
% of sensitive strains ([34]; without pretreatment, Abs. 1): 0.0%
% of sensitive strains ([35]; after pretreatment, Abs. 0): 0.0%
% of sensitive strains ([35]; without pretreatment, Abs. 1): 100.0%
% of sensitive strains ([36]; after pretreatment, Abs. 4): 0.0%
% of sensitive strains ([36]; without pretreatment, Abs. 11): 9.1%
% of sensitive strains ([37]; after pretreatment, Abs. 2): 50.0%
% of sensitive strains ([37]; without pretreatment, Abs. 4): 50.0%
% of sensitive strains ([38]; after pretreatment, Abs. 48): 54.2%
% of sensitive strains ([38]; without pretreatment, Abs. 95): 69.5%
sensitivity, total strains ([39]; higher severity group (Fine scores >70)): 55,8%
sensitivity, total strains ([39]; lower severity group (Fine scores <70)): 64.8%
Susceptibility [40]: 99.3%

C[C@@H]1[C@H](O)[C@@H](C)/C=C/C=C/C=C/C=C/C=C/C=C/C=C/[C@H](O[C@@H]2O[C@H](C)[C@@H](O)[C@H](N)[C@@H]2O)C[C@@H]2O[C@](O)(C[C@@H](O)C[C@@H](O)[C@H](O)CC[C@@H](O)C[C@@H](O)CC(=O)O[C@H]1C)C[C@H](O)[C@H]2C(=O)O [amphotericin B]
susceptibility of all tested strains [1]: susceptible
resistant [2]: 10%

Clc1ccc(COC(Cn2ccnc2)c2ccc(Cl)cc2Cl)c(Cl)c1 (stereo not shown) [miconazole]
susceptibility of all tested strains [1]: susceptible
resistant and intermediate susceptibility [2]: 50%

Source: publication PMC7129073 (Clinical Microbiology and Infection, 2015)
